In test [1] the test system is CHO cells expressing TRU-016. The experiment in a line: Growth and viability of CHO cells expressing TRU-016 cultured with carbohydrate modifier. The class given is cell-based, Chinese hamster. Particulars: castanospermine up to 1000 μM, up to 144 hours. How it is done: For shake flask runs, log phase host cells were seeded in shake flasks at 100,000 cells/ml with carbohydrate modifier at the concentration to be tested, and optionally with methotrexate (MTX) @ 50 nM.
Cells were seeded at 3×10^6/mL in 1350 mL of Ex-Cell 302 culture media (SATC Biosciences; with added non-essential amino acids, pyrucate, L-glutamine, pen/strep, HT Supplement and insulin, all from Invitrogen) at t=0 and brought to 5 L total volume at T>=72 hours. The cells were incubated at 37° C. and 5% carbon dioxide and monitored for growth and viability daily starting at day 6-7. Supernatants were typically harvested at day 10-12 when cell viability dropped below 60%.
Na-Azide was added to 0.02%, cells were removed by centrifugation and supernatant was filter sterilized through a 0.22 uM filter. Some assays described in other examples herein were performed on the supernatants as indicated, while other assays were performed on material that underwent further protein A purification. […] Cells were incubated at 37° C. and 5% carbon dioxide and monitored daily for growth and viability. […]

Test [2] deals with human CD16 (low affinity polymorphism), FcγRIIIa. The experiment in a line: Simultaneous binding of TRU-016 to CD37 (Daudi cells) and CD16:MuIgGFc fusion. How it is done:
TRU-016 produced as described in Example 8 was tested in the following assay, which simultaneously evaluates the ability of the TRU-016 binding domain to bind to a CD37 expressing target cell and the ability of the Fc portion of the TRU-016 SMIP to bind a fusion protein of human CD16 and murine IgG Fc.
The target cell utilized is the Daudi (ATCC CRL-213) cell line. Daudi cells are a human B-lymphoblastoid cell line derived from a Burkitt's lymphoma and express high levels of CD37. The custom soluble CD16:MuIgGFc fusion protein is human CD16 (low affinity polymorphism) linked to a murine IgG Fc.
The appropriate number of Daudi cells (350,000/well times the number of wells) is aliquoted and centrifuged at 250×g for 5 minutes at 15° C. The supernatant is removed. One percent cold paraformaldehyde is prepared by diluting the 4% stock from USB (USB US19943) 1:4 with FACS Buffer. FACS Buffer is prepared by adding 2% FBS (Gibco) to Dulbecco's PBS (Invitrogen) (v/v) and sterile filtering with a 0.22 μm filter. FACS Buffer is stored and used at 4° C. […]
Each sample's bound fluorescence is measured on a BD FACSCalibur flow cytometry system and analyzed with Cell Quest Pro software (Becton Dickinson, ver 5.2). The GeoMean fluorescence intensity for each sample is plotted relative to the TRU-016 concentration. […]

Consider `O[C@H]1[C@H](O)[C@@H](O)CN2CC[C@H](O)[C@H]12` [castanospermine], for which, in test [1], the cell counts entry was “did not affect” and the percent cell viability result is reported as “did not affect”. Moreover, the “maximal improvement in TRU-016 glycovariant binding to CD16” value in test [2] (CHO-K1 produced, CS concentrations of 100 μM or greater) was “approximately 7 fold”. Moreover, the “binding to CD16 (GeoMean fluorescence, D-parameter) of DG44 CHO produced TRU-016” value in test [2] (relative to concentration of CS up to 400 μM, then levels off) is given as “dose-dependent binding response”.

Values taken from patent US7846434B2, “Materials and methods for improved immunoglycoproteins” (Trubion Pharmaceuticals, Inc., priority 2006, dated 2010).
